Laboratory results from ChEMBL document CHEMBL1144319, “Design, synthesis, and evaluation of oxazole transthyretin amyloidogenesis inhibitors” (Bioorg Med Chem Lett, 2005).

Target: Transthyretin (Homo sapiens) (UniProt P02766)
Test: Binding selectivity to transthyretin in human blood plasma after 24 hincubation with 10.8 uM inhibitor
Type: cell-free

| Molar equivalence bound | SMILES |
| --- | --- |
| 0.49 | CCc1oc(-c2cc(Cl)cc(Cl)c2)nc1C(=O)O |
| 0.68 | O=C(O)c1nc(-c2cc(Cl)cc(Cl)c2)oc1C(F)(F)F |
